Data on eight molecules can be found in patent US8952157B2, “Apoptosis-inducing agents for the treatment of cancer and immune and autoimmune diseases” (AbbVie Inc., priority 2008, dated 2015).

Each structure is given as a SMILES string.

The target in the first assay is GST-Bcl-2 (Homo sapiens (Human), UniProt P10415). The assay can be described thus: Time Resolved-Fluorescence Resonance Energy Transfer (TR-FRET) Bcl-2 binding assay.
Chain of GST-Bcl-2 (P10415 whole entry): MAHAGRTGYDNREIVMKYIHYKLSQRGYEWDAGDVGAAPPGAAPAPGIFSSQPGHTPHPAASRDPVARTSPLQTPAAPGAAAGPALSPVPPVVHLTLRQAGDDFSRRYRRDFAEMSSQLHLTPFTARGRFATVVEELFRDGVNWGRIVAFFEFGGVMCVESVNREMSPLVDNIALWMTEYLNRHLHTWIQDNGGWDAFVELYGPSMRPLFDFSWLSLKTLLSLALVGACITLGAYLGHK
Details: not given
In short, it runs like this:
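Competition TR-FRET: GST-Bcl-2 with fluorescent Bak peptide probe and Tb-anti-GST antibody, compounds serially diluted from 50 μM (2× start, 10% DMSO).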
`CC1(C)CCC(CN2CCN(c3ccc(C(=O)NS(=O)(=O)c4cnc(N[C@H]5CC[C@H](N6CCOCC6)CC5)c(Br)c4)c(Oc4cc5cc[nH]c5cc4F)c3)CC2)=C(c2ccc(Cl)cc2)C1` [Example 307, Trans-N-({5-bromo-6-[(4-morpholin-4-ylcyclohexyl)amino]pyridin-3-yl}sulfonyl)-4-(4-{[2-(4-chlorophenyl)-4,4-dimethylcyclohex-1-en-1-yl]methyl}piperazin-1-yl)-2-[(6-fluoro-1H-indol-5-yl)oxy]benzamide] had a Ki of 0.524 nM.

The assay is the same for the next values; noted with them: GST-Bcl-2 1 nM, F-Bak peptide probe 100 nM, Tb-anti-GST antibody 1 nM; Ki by Wang's equation.
On to `CC1(C)CCC(CN2CCN(c3ccc(C(=O)NS(=O)(=O)c4ccc(NC5CCOCC5)c([N+](=O)[O-])c4)c(Oc4cc5cc[nH]c5cc4F)c3)CC2)=C(c2ccc(Cl)cc2)C1` [Example 251, 4-(4-{[2-(4-chlorophenyl)-4,4-dimethylcyclohex-1-en-1-yl]methyl}piperazin-1-yl)-2-[(6-fluoro-1H-indol-5-yl)oxy]-N-{[3-nitro-4-(tetrahydro-2H-pyran-4-ylamino)phenyl]sulfonyl}benzamide], for which the affinity, expressed as Ki, was 0.435 nM.

As to `CC1(C)CCC(CN2CCN(c3ccc(C(=O)NS(=O)(=O)c4ccc(NCCCN5CCOCC5)c([N+](=O)[O-])c4)c(Oc4ccc(F)cc4Cl)c3)CC2)=C(c2ccc(Cl)cc2)C1` [Example 120, 2-(2-chloro-4-fluorophenoxy)-4-(4-{[2-(4-chlorophenyl)-4,4-dimethylcyclohex-1-en-1-yl]methyl}piperazin-1-yl)-N-({4-[(3-morpholin-4-ylpropyl)amino]-3-nitrophenyl}sulfonyl)benzamide], the affinity, expressed as Ki, was 0.214 nM.

Regarding `CN(C)Cc1cccc(Oc2cc(N3CCN(Cc4ccccc4-c4ccc(Cl)cc4)CC3)ccc2C(=O)NS(=O)(=O)c2ccc(NCC3CCOCC3)c([N+](=O)[O-])c2)c1` [Example 1, 4-(4-((4′-chloro-1,1′-biphenyl-2-yl)methyl)piperazin-1-yl)-2-(3-((dimethylamino)methyl)phenoxy)-N-((3-nitro-4-((tetrahydro-2H-pyran-4-ylmethyl)amino)phenyl)sulfonyl)benzamide], the affinity corresponds to a Ki of 8.35 nM.

For the molecule `CC1(C)CCC(CN2CCN(c3ccc(C(=O)NS(=O)(=O)c4ccc(NC5CCN(C6CC6)CC5)c([N+](=O)[O-])c4)c(Oc4cccc(F)c4)c3)CC2)=C(c2ccc(Cl)cc2)C1` [Example 132, 4-(4-{[2-(4-chlorophenyl)-4,4-dimethylcyclohex-1-en-1-yl]methyl}piperazin-1-yl)-N-({4-[(1-cyclopropylpiperidin-4-yl)amino]-3-nitrophenyl}sulfonyl)-2-(3-fluorophenoxy)benzamide], affinity was put at a Ki of 0.211 nM.

`O=C(NS(=O)(=O)c1ccc(NCC2CCOCC2)c([N+](=O)[O-])c1)c1ccc(N2CCN(Cc3ccccc3-c3ccc(Cl)cc3)CC2)cc1Oc1cccc(OCc2ccccc2)c1` [Example 71, 2-(3-(benzyloxy)phenoxy)-4-(4-((4′-chloro-1,1′-biphenyl-2-yl)methyl)piperazin-1-yl)-N-((3-nitro-4-((tetrahydro-2H-pyran-4-ylmethyl)amino)phenyl)sulfonyl)benzamide] came in with a Ki of 31.6 nM.

`CC(=O)Nc1ccc(Oc2cc(N3CCN(CC4=C(c5ccc(Cl)cc5)CC(C)(C)CC4)CC3)ccc2C(=O)NS(=O)(=O)c2ccc(NCC3CCOCC3)c([N+](=O)[O-])c2)cn1` [Example 355, 2-{[6-(acetylamino)pyridin-3-yl]oxy}-4-(4-{[2-(4-chlorophenyl)-4,4-dimethylcyclohex-1-en-1-yl]methyl}piperazin-1-yl)-N-({3-nitro-4-[(tetrahydro-2H-pyran-4-ylmethyl)amino]phenyl}sulfonyl)benzamide] showed a Ki of 9.57 nM.

The molecule `CN1CCC(Nc2ccc(S(=O)(=O)NC(=O)c3ccc(N4CCN(CC5=C(c6ccc(Cl)cc6)CC(C)(C)CC5)CC4)cc3Oc3cccc(-c4ccc[nH]4)c3)cc2[N+](=O)[O-])CC1` [Example 197, 4-(4-{[2-(4-chlorophenyl)-4,4-dimethylcyclohex-1-en-1-yl]methyl}piperazin-1-yl)-N-({4-[(1-methylpiperidin-4-yl)amino]-3-nitrophenyl}sulfonyl)-2-[3-(1H-pyrrol-2-yl)phenoxy]benzamide] registered a Ki of 0.22 nM.

What is called Ki is the dissociation constant of the complex between target and ligand, obtained from inhibition or displacement. Lower therefore signals higher affinity.
